Measured values: US8513232B2, “Substituted spirocyclic piperidine derivatives as histamine-3 (H3) receptor ligands” (Cephalon, Inc., priority 2008, dated 2013)

Key:
[1] = target: T1, rat histamine H3 receptor (Rattus norvegicus, UniProt Q9QYN8); assay: Rat H3 radioligand binding ([3H]-N-alpha-methylhistamine, SPA); details: rat H3 binding, Table D; read-out: Rat H3 Ki
T1 construct: encoding the entire 445-amino-acid rat histamine H3 receptor; expressed in transfected cells; membrane preparation
Outline: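 SPA-bead binding assay using [3H]-N-alpha-methylhistamine (approximately 1 nM final) with test compounds from 0.01 nM to 30 μM. Rat H3 receptor membranes came from stably transfected CHO-A3 cells; incubation ran 4 h at room temperature, in the dark, in Tris pH 7.4 buffer with MgCl2 and BSA. Clobenpropit (10 μM) gave non-specific binding.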

human H3 receptor = target: T2, human H3 receptor (Homo sapiens, UniProt Q9Y5N1); assay: Human H3 radioligand binding ([3H]-N-alpha-methylhistamine, SPA); details: human H3 binding, Table D; read-out: Human H3 Ki
T2 construct: expressed in transfected cells
Outline: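 Compounds (0.01 nM-30 μM) competed with approximately 1 nM [3H]-N-alpha-methylhistamine for human H3 receptor in membranes of stably transfected CHO cells, 10 μg protein per well, in Tris-HCl pH 7.4/MgCl2/BSA buffer for 4 h at room temperature. Bound radioligand measured by scintillation proximity; 10 μM clobenpropit gave non-specific binding.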

T1 sequence (Q9QYN8 whole entry): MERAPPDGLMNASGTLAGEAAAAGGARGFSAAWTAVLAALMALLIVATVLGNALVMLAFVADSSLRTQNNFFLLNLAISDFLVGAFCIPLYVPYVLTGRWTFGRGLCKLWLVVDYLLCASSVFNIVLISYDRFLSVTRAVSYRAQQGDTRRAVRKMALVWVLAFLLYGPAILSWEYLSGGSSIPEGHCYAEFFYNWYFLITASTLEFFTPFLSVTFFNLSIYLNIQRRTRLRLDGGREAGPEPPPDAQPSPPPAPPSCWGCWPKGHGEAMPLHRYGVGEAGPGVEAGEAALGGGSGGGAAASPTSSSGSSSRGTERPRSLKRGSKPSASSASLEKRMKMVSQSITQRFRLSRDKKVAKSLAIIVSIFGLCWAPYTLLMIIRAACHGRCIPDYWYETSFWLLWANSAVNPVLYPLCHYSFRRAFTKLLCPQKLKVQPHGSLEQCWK
T2 sequence (Q9Y5N1 whole entry): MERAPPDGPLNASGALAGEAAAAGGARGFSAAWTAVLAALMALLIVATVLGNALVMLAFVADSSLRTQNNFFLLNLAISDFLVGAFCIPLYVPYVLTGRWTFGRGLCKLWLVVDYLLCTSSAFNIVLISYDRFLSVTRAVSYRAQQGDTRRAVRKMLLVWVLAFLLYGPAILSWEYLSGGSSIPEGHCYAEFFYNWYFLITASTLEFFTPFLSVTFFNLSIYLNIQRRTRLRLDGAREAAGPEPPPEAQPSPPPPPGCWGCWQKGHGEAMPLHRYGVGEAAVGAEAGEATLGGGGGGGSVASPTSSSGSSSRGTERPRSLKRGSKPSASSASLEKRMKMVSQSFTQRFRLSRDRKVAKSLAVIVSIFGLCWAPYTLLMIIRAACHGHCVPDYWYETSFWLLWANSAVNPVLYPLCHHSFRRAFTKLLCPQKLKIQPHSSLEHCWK

SMILES | melting point [°C] | Ki [1] [nM] | Ki (human H3 receptor) [nM]
COc1ccc(-c2ccc3c(c2)COC2(CCN(C4COC4)CC2)O3)cn1 [Example 713] | 162 to 164 | > 1000 | 200 to 1000
COc1ccc(-c2ccc3c(c2)COC2(CCN(CC4CCOCC4)CC2)O3)cn1 [Example 716] | 151 to 153 | > 1000 | > 1000
COc1ccc(-c2ccc3c(c2)COC2(CCN(C4CC(CO)C4)CC2)O3)cn1 (stereo not drawn) [Example 717] | 123 to 125 | 200 to 1000 | 200 to 1000
O=c1ccc(-c2ccc3c(c2)COC2(CCN(C4COC4)CC2)O3)c[nH]1 [Example 718] | 262 to 264 | > 1000 | > 1000
O=c1ccc(-c2ccc3c(c2)COC2(CCN(CC4CCOCC4)CC2)O3)c[nH]1 [Example 722] | 245 to 248 | > 1000 | 200 to 1000
COc1ccc(-c2ccc3c(c2)COC2(CCN(C4CCOC4)CC2)O3)cn1 (stereo not drawn) [Example 725] | 139 to 141 | 200 to 1000 | 200 to 1000
O=c1ccc(-c2ccc3c(c2)COC2(CCN(C4CCOC4)CC2)O3)c[nH]1 (stereo not drawn) [Example 729] | 222 to 226 | 200 to 1000 | 200 to 1000
COc1ccc(-c2ccc3c(c2)COC2(CCN(C4CC(C(=O)O)C4)CC2)O3)cn1 (stereo not drawn) [Example 734] | 260 to 262 | > 1000 | > 1000
CN(C)C(=O)C1CC(N2CCC3(CC2)OCc2cc(-c4ccc(=O)[nH]c4)ccc2O3)C1 (stereo not drawn) [Example 735] | 247 to 249 | > 1000 | > 1000
Cc1ccc(-c2ccc3c(c2)COC2(CCN(C4CCC4)CC2)O3)c(C)n1 [Example 748] | 190 to 192 | < 200 | < 200
COc1ccncc1-c1ccc2c(c1)COC1(CCN(C3CCC3)CC1)O2 [Example 749] | 58 to 60 | < 200 | < 200
c1cc2c(cc1-c1cn[nH]c1)COC1(CCN(C3CCC3)CC1)O2 [Example 750] | 205 to 207 | < 200 | < 200
Cc1cc(C(N)=O)cc(C)c1-c1ccc2c(c1)COC1(CCN(C3CCC3)CC1)O2 [Example 751] | 156 to 158 | < 200 | < 200
Cc1cnc(C)c(-c2ccc3c(c2)COC2(CCN(C4CCC4)CC2)O3)n1 [Example 752] | 102 to 103 | < 200 | < 200
FC(F)(F)c1ncccc1-c1ccc2c(c1)COC1(CCN(C3CCC3)CC1)O2 [Example 753] | 190 to 192 | 200 to 1000 | 200 to 1000
COc1cc(-c2ccc3c(c2)COC2(CCN(C4CCC4)CC2)O3)c(F)cn1 [Example 754] | 135 to 136 | < 200 | < 200
Cc1cc(=O)n(CC(F)(F)F)cc1-c1ccc2c(c1)COC1(CCN(C3CCC3)CC1)O2 [Example 755] | 60 to 62 | < 200 | < 200
Cc1cccc(C)c1-c1ccc2c(c1)COC1(CCN(C3CCC3)CC1)O2 [Example 756] | 58 to 60 | 200 to 1000 | < 200
c1ccn2ncc(-c3ccc4c(c3)COC3(CCN(C5CCC5)CC3)O4)c2c1 [Example 757] | 158 to 160 | < 200 | < 200
CC(C)n1ccc(-c2ccc3c(c2)COC2(CCN(C4CCC4)CC2)O3)cc1=O [Example 758] | 218 to 220 | < 200 | < 200
Cc1cc(=O)n(C(C)C)cc1-c1ccc2c(c1)COC1(CCN(C3CCC3)CC1)O2 [Example 759] | 65 to 68 | < 200 | < 200
Cc1c(-c2ccc3c(c2)COC2(CCN(C4CCC4)CC2)O3)ccc(=O)n1C [Example 760] | 59 to 61 | < 200 | < 200
COc1cc(-c2ccc3c(c2)COC2(CCN(C4CCC4)CC2)O3)cn(C)c1=O [Example 761] | 70 to 72 | < 200 | < 200
CCOC(=O)c1cc(=O)n(C)cc1-c1ccc2c(c1)COC1(CCN(C3CCC3)CC1)O2 [Example 762] | 71 to 74 | < 200 | < 200
Cc1c(-c2ccc3c(c2)COC2(CCN(C4CCC4)CC2)O3)ccc(=O)n1C(F)F [Example 763] | 143 to 145 | < 200 | < 200
Cc1cc(=O)n(C(F)F)cc1-c1ccc2c(c1)COC1(CCN(C3CCC3)CC1)O2 [Example 764] | 119 to 121 | < 200 | < 200
CCSc1c[nH]c(=O)cc1-c1ccc2c(c1)COC1(CCN(C3CCC3)CC1)O2 [Example 765] | 85 to 88 | < 200 | < 200
O=c1cc(-c2ccc3c(c2)COC2(CCN(C4CCC4)CC2)O3)c(F)c[nH]1 [Example 766] | 254 to 255 | < 200 | < 200

Other lines, results leading:

melting point [°C] | Ki [1] [nM] | Ki (human H3 receptor) [nM] | SMILES
122 to 124 | < 200 | < 200 | COc1cc(C(N)=O)ccc1-c1ccc2c(c1)COC1(CCN(C3CCC3)CC1)O2 [Example 712]
175 to 177 | < 200 | < 200 | COc1ncc(-c2ccc3c(c2)COC2(CCN(C4CCC4)CC2)O3)cc1F [Example 714]
112 to 114 | < 200 | < 200 | NC(=O)c1ccc(-c2ccc3c(c2)COC2(CCN(C4CCC4)CC2)O3)c(Cl)c1 [Example 715]
176 to 177 | < 200 | < 200 | CC(C)n1cc(-c2ccc3c(c2)COC2(CCN(C4CCC4)CC2)O3)ccc1=O [Example 719]
129 to 130 | < 200 | < 200 | O=c1ccc(-c2ccc3c(c2)COC2(CCN(C4CCC4)CC2)O3)cn1CCO [Example 720]
230 to 232 | < 200 | < 200 | O=c1ccc(-c2ccc3c(c2)COC2(CCN(C4CCOCC4)CC2)O3)c[nH]1 [Example 723]
131 to 133 | < 200 | < 200 | COc1ccc(-c2ccc3c(c2)COC2(CCN(C4CCC4)CC2)O3)c(C)n1 [Example 726]
200 to 202 | < 200 | < 200 | O=c1[nH]cc(-c2ccc3c(c2)COC2(CCN(C4CCC4)CC2)O3)cc1F [Example 727]
241 to 243 | < 200 | < 200 | CCSc1cc(-c2ccc3c(c2)COC2(CCN(C4CCC4)CC2)O3)c[nH]c1=O [Example 728]
140 to 141 | < 200 | < 200 | c1cc(-c2ccc3c(c2)COC2(CCN(C4CCC4)CC2)O3)[nH]n1 [Example 730]
224 to 225 | < 200 | < 200 | Cc1cnc(-c2ccc3c(c2)COC2(CCN(C4CCC4)CC2)O3)c(C)n1 [Example 731]
152 to 154 | < 200 | < 200 | COc1ccc(-c2ccc3c(c2)COC2(CCN(C(C)(C)C)CC2)O3)cn1 [Example 732]
241 to 243 | < 200 | < 200 | CC(C)(C)N1CCC2(CC1)OCc1cc(-c3ccc(=O)[nH]c3)ccc1O2 [Example 733]
191 to 193 | < 200 | < 200 | Cc1[nH]c(=O)ccc1-c1ccc2c(c1)COC1(CCN(C3CCC3)CC1)O2 [Example 736]
125 to 127 | < 200 | < 200 | O=c1ccc(-c2ccc3c(c2)COC2(CCN(C4CCC4)CC2)O3)cn1C(F)F [Example 737]
103 to 106 | < 200 | < 200 | Cc1noc(C)c1C(=O)N1CCN(c2ccc3c(c2)COC2(CCN(C4CCC4)CC2)O3)C(=O)C1 [Example 738]
146 to 148 | < 200 | < 200 | CCC(=O)N1CCN(c2ccc3c(c2)COC2(CCN(C4CCC4)CC2)O3)C(=O)C1 [Example 739]
107 to 109 | < 200 | < 200 | Cn1nccc1-c1ccc2c(c1)COC1(CCN(C3CCC3)CC1)O2 [Example 740]
212 to 214 | < 200 | < 200 | COc1cc(-c2ccc3c(c2)COC2(CCN(C4CCC4)CC2)O3)ccc1C(N)=O [Example 742]
267 to 269 | < 200 | < 200 | NC(=O)c1ccc(-c2ccc3c(c2)COC2(CCN(C4CCC4)CC2)O3)cc1O [Example 743]
197 to 199 | < 200 | < 200 | Cc1ncccc1-c1ccc2c(c1)COC1(CCN(C3CCC3)CC1)O2 [Example 744]
200 to 202 | < 200 | < 200 | Cc1ccncc1-c1ccc2c(c1)COC1(CCN(C3CCC3)CC1)O2 [Example 745]
61 to 63 | < 200 | < 200 | COc1nc(C)ccc1-c1ccc2c(c1)COC1(CCN(C3CCC3)CC1)O2 [Example 746]
210 to 212 | < 200 | < 200 | COc1ncccc1-c1ccc2c(c1)COC1(CCN(C3CCC3)CC1)O2 [Example 747]
